# Assay results reported in patent publication US12252484B2, “Pyrazolopyridine compounds for the treatment of autoimmune disease” (Hoffmann-La Roche Inc., priority 2018, dated 2025).
# Molecular target: T1, human TLR8 (Homo sapiens, UniProt Q9NR97)
# T1 sequence (Q9NR97 27-1041): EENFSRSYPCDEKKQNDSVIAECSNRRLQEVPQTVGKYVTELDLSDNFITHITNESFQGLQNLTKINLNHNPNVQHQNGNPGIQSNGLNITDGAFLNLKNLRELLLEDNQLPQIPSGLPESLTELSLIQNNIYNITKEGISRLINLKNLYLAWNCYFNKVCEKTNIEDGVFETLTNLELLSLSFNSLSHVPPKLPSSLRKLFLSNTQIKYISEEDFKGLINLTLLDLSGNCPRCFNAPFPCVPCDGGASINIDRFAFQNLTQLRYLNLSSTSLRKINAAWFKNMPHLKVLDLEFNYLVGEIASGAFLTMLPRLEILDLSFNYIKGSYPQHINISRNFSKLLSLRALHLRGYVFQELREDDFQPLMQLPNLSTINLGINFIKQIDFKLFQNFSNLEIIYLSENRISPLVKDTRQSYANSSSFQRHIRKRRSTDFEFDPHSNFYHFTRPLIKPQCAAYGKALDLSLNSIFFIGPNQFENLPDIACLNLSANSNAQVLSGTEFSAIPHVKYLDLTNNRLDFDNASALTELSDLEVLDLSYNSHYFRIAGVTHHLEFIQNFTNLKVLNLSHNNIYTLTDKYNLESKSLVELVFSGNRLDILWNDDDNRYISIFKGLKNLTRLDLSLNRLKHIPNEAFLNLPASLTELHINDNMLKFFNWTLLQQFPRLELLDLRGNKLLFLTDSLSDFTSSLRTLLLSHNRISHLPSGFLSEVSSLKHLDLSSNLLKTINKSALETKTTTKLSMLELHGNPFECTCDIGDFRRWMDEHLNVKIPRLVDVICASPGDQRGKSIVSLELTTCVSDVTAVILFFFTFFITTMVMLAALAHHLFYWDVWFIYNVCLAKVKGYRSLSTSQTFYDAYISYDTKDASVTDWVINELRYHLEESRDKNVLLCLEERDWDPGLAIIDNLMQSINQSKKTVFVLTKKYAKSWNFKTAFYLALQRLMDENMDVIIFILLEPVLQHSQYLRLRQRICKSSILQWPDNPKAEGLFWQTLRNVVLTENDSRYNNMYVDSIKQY
# Test: HEK293-Blue-hTLR-8 cells assay (SEAP reporter, R848 stimulation)
# Format: cell-based
# Conditions: not given
# Method: The following tests were carried out in order to determine the activity of the compounds of formula (I) in HEK293-Blue-hTLR-7/8/9 cells assay.
# HEK293-Blue-hTLR-8 Cells Assay:
# A stable HEK293-Blue-hTLR-8 cell line was purchased from InvivoGen (Cat. #: hkb-htlr8, San Diego, California, USA). These cells were originally designed for studying the stimulation of human TLR8 by monitoring the activation of NF-κB. A SEAP (secreted embryonic alkaline phosphatase) reporter gene was placed under the control of the IFN-β minimal promoter fused to five NF-κB and AP-1-binding sites. The SEAP was induced by activating NF-κB and AP-1 via stimulating HEK-Blue hTLR8 cells with TLR8 ligands. Therefore the reporter expression was declined by TLR8 antagonist under the stimulation of a ligand, such as R848, for incubation of 20 hrs. The cell culture supernatant SEAP reporter activity was determined using QUANTI-Blue™ kit (Cat. #: rep-qb1, Invivogen, San Diego, Ca, USA) at a wavelength of 640 nm, a detection medium that turns purple or blue in the presence of alkaline phosphatase.
# HEK293-Blue-hTLR8 cells were incubated at a density of 250,000˜450,000 cells/mL in a volume of 170 μL in a 96-well plate in Dulbecco's Modified Eagle's medium (DMEM) containing 4.5 g/L glucose, 50 U/mL penicillin, […], […], 2 mM L-glutamine, 10% (v/v) heat-inactivated fetal bovine serum with addition of 20 μL test compound in a serial dilution in the presence of final DMSO at 1% and 10 μL of 60 uM R848 in above DMEM, perform incubation under 37° C. in a CO2 incubator for 20 hrs. Then 20 μL of the supernatant from each well was incubated with 180 μL Quanti-blue substrate solution at 37° C. for 2 hrs and the absorbance was read at 620˜655 nm using a spectrophotometer. The signalling pathway that TLR8 activation leads to downstream NF-κB activation has been widely accepted, and therefore similar reporter assay was modified for evaluating TLR8 antagonist.
row,Structure (SMILES),IC50
1,"C[C@@H]1CN(c2ccc(C#N)n3nccc23)C[C@H](C(=O)NC2CC3CCCC(C2)N3C)O1 (stereo partly drawn) [Example 35, (2R,6R)-4-(7-cyanopyrazolo[1,5-a]pyridin-4-yl)-6-methyl-N-(9-methyl-9-azabicyclo[3.3.1]nonan-3-yl)morpholine-2-carboxamide]",38 nM

# Same assay, conditions: HEK293-Blue-hTLR-8 cells, R848 ligand, 20 hrs incubation; read-out: TLR8 IC50
row,Structure (SMILES),IC50
1,"C[C@@H]1CN(c2ccc(C#N)n3nccc23)C[C@H](C(=O)NC2C3CCCC2CNC3)O1 (stereo partly drawn) [Example 37, (2R,6R)-N-(3-azabicyclo[3.3.1]nonan-9-yl)-4-(7-cyanopyrazolo[1,5-a]pyridin-4-yl)-6-methyl-morpholine-2-carboxamide]",18 nM
2,"C[C@@H]1CN(c2ccc(C#N)n3nccc23)C[C@H](C(=O)NC2C3CNCC2COC3)O1 (stereo partly drawn) [Example 27, (2R,6R)-4-(7-cyanopyrazolo[1,5-a]pyridin-4-yl)-6-methyl-N-(3-oxa-7-azabicyclo[3.3.1]nonan-9-yl)morpholine-2-carboxamide]",370 nM
3,"C[C@@H]1CN(c2ccc(C#N)n3nccc23)C[C@H](C(=O)NC(C)(C)CO)O1 [Example 16, (2R,6R)-4-(7-cyanopyrazolo[1,5-a]pyridin-4-yl)-N-(2-hydroxy-1,1-dimethyl-ethyl)-6-methyl-morpholine-2-carboxamide]",210 nM
4,"COCCNC(=O)[C@H]1CN(c2ccc(C#N)n3nccc23)C[C@@H](C)O1 [Example 9, (2R,6R)-4-(7-cyanopyrazolo[1,5-a]pyridin-4-yl)-N-(2-methoxyethyl)-6-methyl-morpholine-2-carboxamide]",860 nM
5,"C[C@@H]1CN(c2ccc(C#N)n3nccc23)C[C@H](C(=O)N[C@H]2CC[C@@H](O)CC2)O1 [Example 20, Cis-(2R,6R)-4-(7-cyanopyrazolo[1,5-a]pyridin-4-yl)-N-(4-hydroxycyclohexyl)-6-methyl-morpholine-2-carboxamide]",190 nM
6,"C[C@@H]1CN(c2ccc(C#N)n3nccc23)C[C@H](C(=O)NC2CC3COCC(C2)N3)O1 (stereo partly drawn) [Example 22, Endo-(2R,6R)-4-(7-cyanopyrazolo[1,5-a]pyridin-4-yl)-6-methyl-N-[3-oxa-9-azabicyclo[3.3.1]nonan-7-yl]morpholine-2-carboxamide]",25 nM
7,"C[C@@H]1CN(c2ccc(C#N)n3nccc23)C[C@H](C(=O)NC2CCN(C)CC2)O1 [Example 1, (2R,6R)-4-(7-cyanopyrazolo[1,5-a]pyridin-4-yl)-6-methyl-N-(1-methyl-4-piperidyl)morpholine-2-carboxamide]",7 nM
8,"C[C@@H]1CN(c2ccc(C#N)n3nccc23)C[C@H](C(=O)N[C@H]2CNC[C@H]2F)O1 [Example 2, (2R,6R)-4-(7-cyanopyrazolo[1,5-a]pyridin-4-yl)-N-[(3S,4R)-4-fluoropyrrolidin-3-yl]-6-methyl-morpholine-2-carboxamide]",160 nM
9,"C[C@@H]1CN(c2ccc(C#N)n3ncc(F)c23)C[C@H](C(=O)NC2CCN(C)CC2)O1 [Example 47, (2R,6R)-4-(7-cyano-3-fluoro-pyrazolo[1,5-a]pyridin-4-yl)-6-methyl-N-(1-methyl-4-piperidyl)morpholine-2-carboxamide]",5 nM
10,"C[C@@H]1CN(c2ccc(C#N)n3nccc23)C[C@H](C(=O)NC2CC3CCC(C2)N3)O1 (stereo partly drawn) [Example 23, Exo-(2R,6R)-N-[8-azabicyclo[3.2.1]octan-3-yl]-4-(7-cyanopyrazolo[1,5-a]pyridin-4-yl)-6-methyl-morpholine-2-carboxamide]",74 nM
11,"C[C@@H]1CN(c2ccc(C#N)n3nccc23)C[C@H](C(=O)NCC(C)(C)CN)O1 [Example 39, (2R,6R)-N-(3-amino-2,2-dimethyl-propyl)-4-(7-cyanopyrazolo[1,5-a]pyridin-4-yl)-6-methyl-morpholine-2-carboxamide]",33 nM
12,"CCC(C)(C)NC(=O)[C@H]1CN(c2ccc(C#N)n3nccc23)C[C@@H](C)O1 [Example 17, (2R,6R)-4-(7-cyanopyrazolo[1,5-a]pyridin-4-yl)-N-(1,1-dimethylpropyl)-6-methyl-morpholine-2-carboxamide]",100 nM
13,"C[C@H]1C[C@@H](N)CN(c2ccc(C#N)n3nccc23)C1 [Example 43, 4-[(3R,5S)-3-amino-5-methyl-1-piperidyl]pyrazolo[1,5-a]pyridine-7-carbonitrile]",12 nM
14,"C[C@@H]1CN(c2ccc(C#N)n3nccc23)C[C@H](C(=O)NC2CCOCC2)O1 [Example 4, (2R,6R)-4-(7-cyanopyrazolo[1,5-a]pyridin-4-yl)-6-methyl-N-tetrahydropyran-4-yl-morpholine-2-carboxamide]",910 nM

# Results, then the molecule that gave them:
row,IC50,Structure (SMILES)
1,830 nM,"C[C@@H]1CN(c2ccc(C#N)n3nccc23)C[C@H](C(=O)NC2CC3CC2CN3)O1 (stereo partly drawn) [Example 36, (2R,6R)-N-(2-azabicyclo[2.2.1]heptan-5-yl)-4-(7-cyanopyrazolo[1,5-a]pyridin-4-yl)-6-methyl-morpholine-2-carboxamide]"
2,520 nM,"C[C@@H]1CN(c2ccc(C#N)n3nccc23)C[C@H](C(=O)N2CC(N)C2)O1 [Example 8, 4-[(2R,6R)-2-(3-aminoazetidine-1-carbonyl)-6-methyl-morpholin-4-yl]pyrazolo[1,5a]pyridine-7-carbonitrile]"
3,140 nM,"C[C@H]1C[C@@H](NC(=O)[C@H](C)N)CN(c2ccc(C#N)n3nccc23)C1 [Example 44, (2S)-2-amino-N-[(3R,5S)-1-(7-cyanopyrazolo[1,5-a]pyridin-4-yl)-5-methyl-3-piperidyl]propanamide]"
4,140 nM,"C[C@@H]1CN(c2ccc(C#N)n3nccc23)C[C@H](C(=O)NC(C)(C)CN)O1 [Example 41, (2R,6R)-N-(2-amino-1,1-dimethyl-ethyl)-4-(7-cyanopyrazolo[1,5-a]pyridin-4-yl)-6-methyl-morpholine-2-carboxamide]"
5,97 nM,"C[C@@H]1CN(c2ccc(C#N)n3nccc23)C[C@H](C(=O)N2CCC3(CCNCC3)CC2)O1 [Example 28, 4-[(2R,6R)-2-(3,9-diazaspiro[5.5]undecane-3-carbonyl)-6-methyl-morpholin-4-yl]pyrazolo[1,5a]pyridine-7-carbonitrile]"
6,95 nM,"C[C@@H]1CN(c2ccc(C#N)n3nccc23)C[C@H](C(=O)NC2CC3(CNC3)C2)O1 [Example 3, (2R,6R)-N-(2-azaspiro[3.3]heptan-6-yl)-4-(7-cyanopyrazolo[1,5-a]pyridin-4-yl)-6-methyl-morpholine-2-carboxamide]"
7,93 nM,"C[C@@H]1CN(c2ccc(C#N)n3nccc23)C[C@H](C(=O)NC2C3CCC2CNC3)O1 (stereo partly drawn) [Example 26, (2R,6R)-N-(3-azabicyclo[3.2.1]octan-8-yl)-4-(7-cyanopyrazolo[1,5-a]pyridin-4-yl)-6-methyl-morpholine-2-carboxamide]"
8,47 nM,"C[C@@H]1CN(c2ccc(C#N)n3nccc23)C[C@H](C(=O)NC2CNC[C@H]2F)O1 (stereo partly drawn) [Example 5, Cis-(2R,6R)-4-(7-cyanopyrazolo[1,5-a]pyridin-4-yl)-6-methyl-N-(4-fluoropyrrolidin-3-yl) morpholine-2-carboxamide]"
9,27 nM,"C[C@@H]1CN(c2ccc(C#N)n3nccc23)C[C@H](C(=O)NC2(C)CCNCC2)O1 [Example 19, (2R,6R)-4-(7-cyanopyrazolo[1,5-a]pyridin-4-yl)-6-methyl-N-(4-methyl-4-piperidyl)morpholine-2-carboxamide]"
